Counter-ions that a name gives are not always drawn.
Tests used:
gastric emptying = test: Rat gastric emptying of a test meal (prokinetic activity); assay type: in vivo, rat (male Charles River, Crl: COBS, CD (SD) BR); details: 30 min before test meal, rats sacrificed 60 min after meal
Excerpt: Alternatively, the compounds of formula I wherein p is 1, A is NH and B is NH or 0 can be prepared by treating ArNH2 (37) with compounds of formula 38 (an isocyanate or activated carbonyl derivative of azatetracycles 11, 26, 32 or 35). L1 is as described above. […] Prokinetic activity of a compound can be determined by measuring the enhancement of gastric emptying of a meal in a rat model to which the compound has been administered. This method for determining prokinetic activity of a compound has been described by Droppleman, et al, J. Pharmacol. and Methods 4: 227-230 (1980).
A test meal for measuring gastric emptying in rats was prepared. Ten grams of methylcellulose (2% solution=15 centipoises; Aldrich Chemical Company, Milwaukee, Wis.) was added to 200ml of cold water and mixed at 20,000 rpm in a Waring blender to insure dispersion and hydration of the methylcellulose. In addition, two beef bouillon cubes (Wyler's, Columbus, Ohio) dissolved in 100ml of warm water was added to the mixture, followed by 16g of casein (Hammersten, Schwartz/Mann, Orangeburg, N.Y.), 8g of powdered confectioners sugar and 8g of cornstarch. The ingredients were mixed for two minutes at 20,000 rpm and the resultant test meal was refrigerated for 48 hours to allow trapped air to escape. Male Charles River Rats, Crl: COBS, CD (SD) BR Strain, 180-200g body weight, were used in groups of six animals. The animals were food deprived for 24 hours prior to the experiment with access to water ad libitum. The compounds to be evaluated were prepared in a 0.5% aqueous methylcellulose solution. If insoluble, the mixture was homogenized for two minutes at 5500 rpm using a Try R-Stir-R. The compounds were injected intraperitoneally at a volume of 5 ml/kg, 30 minutes before the test meal, (3.0ml/rat i.g.). Control animals received only the vehicle. Sixty minutes after the test meal, the rats were sacrificed by cervical dislocation. The stomachs were removed intact and weighed. The stomachs were kept opened, gently rinsed with tap water, blotted dry with paper towelling, and the empty stomach weighed. The difference between the weight of the full and empty stomach is indicative of the amount of meal remaining in the stomach. The amount of meal remaining in the stomach was subtracted from the weight of 3ml of the test meal to determine the amount of food emptied from the stomach during the test. Weight of the test meal was determined by weighing three samples (3ml) at the beginning and three samples at the end of each experiment and calculating the mean. The mean and standard error of the amount of meal emptied were calculated.
The results of following the protocol and comparing representative compounds herein to known prokinetic agents, metoclopramide and cisapride, are shown in Table III.

5-HT3 = target: T1, 5-HT3 (Canis lupus familiaris, UniProt Q1HHV2); test: Antiemetic activity against cisplatin-induced emesis in beagle dogs; assay type: in vivo; details: for ED50: dog, iv, i.v. 30 min before and 2 h after cisplatin 3 mg/kg i.v., emetic episodes counted 5 h, read-out: ID50 (50% inhibition of the number of emetic episodes)
T1 construct: from tissue; host or cells: living beagle dogs (in vivo, i.v. dosing); endogenous receptor
T1 sequence (Q1HHV2 24-483): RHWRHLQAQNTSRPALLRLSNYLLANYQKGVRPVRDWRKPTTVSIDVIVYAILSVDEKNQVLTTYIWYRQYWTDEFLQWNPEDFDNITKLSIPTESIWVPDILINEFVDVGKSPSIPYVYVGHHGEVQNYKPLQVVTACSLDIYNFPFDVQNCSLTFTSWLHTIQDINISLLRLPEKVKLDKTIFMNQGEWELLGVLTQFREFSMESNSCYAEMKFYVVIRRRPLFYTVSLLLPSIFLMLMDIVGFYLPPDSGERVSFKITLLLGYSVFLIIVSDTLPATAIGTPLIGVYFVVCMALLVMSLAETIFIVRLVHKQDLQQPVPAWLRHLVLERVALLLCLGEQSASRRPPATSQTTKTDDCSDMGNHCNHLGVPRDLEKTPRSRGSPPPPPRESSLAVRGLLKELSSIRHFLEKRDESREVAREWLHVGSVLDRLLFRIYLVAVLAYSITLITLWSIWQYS
Method: 5-HT3 antagonism can be determined in a model of emesis induced by the chemotherapeutic agent cisplatin as described herein.
Antiemetic activity of test compound against cisplatin was determined in beagle dogs. Dogs are pretreated I.V. with a test compound dissolved in DMSO thirty minutes before administration of cisplatin 3 mg/kg.i.v. with a second dose of compounds given i.v. two hours after cisplatin administration. Emetic episodes are counted for 5 hours following cisplatin administration. The latency for first emesis and the number of emetic episodes for test compounds are compared with results for control treatment (vehicle).
Per cent inhibition of emesis for each animal is determined by the following formula: [formula] A mean inhibitory dose (ID50) which results in 50% inhibition of the number of emetic episodes is determined.

COc1cc(N)c(Cl)cc1C(=O)NC1CN2CCC1CC2 (centres unmarked) [ZACOPRIDE]
% increase in gastric emptying (gastric emptying; 0.3 mg/kg ip): 1.4%
% increase in gastric emptying (gastric emptying; 1.0 mg/kg ip): 11.8%
% increase in gastric emptying (gastric emptying; 3.0 mg/kg ip): 9.3%
% increase in gastric emptying (gastric emptying; 10.0 mg/kg ip): 18.5%
% increase in gastric emptying (gastric emptying; 30.0 mg/kg ip): 6.3%

COc1cc(N)c(Cl)cc1C(=O)N[C@H]1[C@H]2C[C@@H]3CN(C2)C[C@@H]31 (relative stereo) [Example 12, 2-methoxy-4-amino-5-chloro-N-(hexahydro-1H-2,5B-methano-3aα, 6aα-cyclopenta[c]pyrrol-4α-yl)benzamidehydrochloride]
ED50 (5-HT3): 0.03 mg/kg
% increase in gastric emptying (gastric emptying; 0.001 mg/kg ip): -5.8%
% increase in gastric emptying (gastric emptying; 0.01 mg/kg ip): 2.0%
% increase in gastric emptying (gastric emptying; 0.03 mg/kg ip): 16.4%
% increase in gastric emptying (gastric emptying; 0.1 mg/kg ip): 31.3%
% increase in gastric emptying (gastric emptying; 0.3 mg/kg ip): 32.1%
% increase in gastric emptying (gastric emptying; 1.0 mg/kg ip): 45.3%

CCN(CC)CCNC(=O)c1cc(Cl)c(N)cc1OC [METOCLOPRAMIDE, metoclopramide]
% increase in gastric emptying (gastric emptying; 1.0 mg/kg ip): 2.6%
% increase in gastric emptying (gastric emptying; 3.0 mg/kg ip): 11.2%
% increase in gastric emptying (gastric emptying; 10.0 mg/kg ip): 34.1%

COc1cc(N)c(Cl)cc1C(=O)NC1CCN(CCCOc2ccc(F)cc2)CC1OC (centres unmarked) [Cisapride, cisapride]
ED50 (5-HT3): 0.6 mg/kg
% increase in gastric emptying (gastric emptying; 1.0 mg/kg ip): 9.8%
% increase in gastric emptying (gastric emptying; 3.0 mg/kg ip): 15.4%
% increase in gastric emptying (gastric emptying; 10.0 mg/kg ip): 25.0%

COc1cc(N)c(Cl)cc1C(=O)NC1CCN2CCCC1C2 (centres unmarked) [BRL-24924]
ED50 (5-HT3): 0.1 mg/kg
% increase in gastric emptying (gastric emptying; 1.0 mg/kg ip): 29.8%
% increase in gastric emptying (gastric emptying; 3.0 mg/kg ip): 34.2%
% increase in gastric emptying (gastric emptying; 10.0 mg/kg ip): 35.2%

CN1[C@@H]2CC[C@H]1C[C@@H](OC(=O)c1c[nH]c3ccccc13)C2 [ICS 205-930]
ED50 (5-HT3): 0.01 mg/kg

Cn1nc(C(=O)N[C@H]2[C@H]3C[C@@H]4CN(C3)C[C@@H]42)c2ccccc21 (relative stereo) [Example 27, (±)-N-(hexahydro-1H-2,5β-methano-3aα,6aα-cyclopenta[c]pyrrol-4α-yl)-1-methyl-1H-indazole-3-carboxamide, hydrochloride]
% inhibition (of emesis) (5-HT3; cisplatin 3 mg/kg i.v., printed in parentheses under 0.10 mg/kg iv): 72%
ED50 (5-HT3): 0.1 mg/kg

Reference: patent US5140023A, “Azatetracycle compounds” (G. D. Searle & Co., priority 1991, dated 1992)
